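Method: 48-hour compound exposure of cells in 96-well plates, five concentrations, linear interpolation of endpoints. GI50 is the concentration that inhibits growth by half.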 Active and inactive are the calls of the source. Cut-off read from the data, not from the text of the source: active = GI50 up to about 1.1 µM and inactive = higher.
Tests used:
Assay in all cases: DTP human tumour cell line panel, 48 h
[1] = system: HT-29
[2] = system: HCC 2998
[3] = system: SNB-75
[4] = system: RPMI-8226
[5] = system: CAKI-1
[6] = system: K562
[7] = system: UACC-257
[8] = system: COLO 205
[9] = system: SK-MEL-28
[10] = system: MOLT-4
[11] = system: SNB-19
[12] = system: HCT-15
[13] = system: UACC-62
[14] = system: OVCAR-3
[15] = system: KM12
[16] = system: NCI-H226
[17] = system: SF-295
[18] = system: NCI/ADR-RES
[19] = system: MDA-N
[20] = system: MCF7

Row | Structure (SMILES) | GI50 [1] | GI50 [2] | GI50 [3] | GI50 [4] | GI50 [5] | GI50 [6] | GI50 [7] | GI50 [8] | GI50 [9] | GI50 [10] | GI50 [11] | GI50 [12] [µM] | GI50 [13] | GI50 [14] | GI50 [15] | GI50 [16] | GI50 [17] | GI50 [18] | GI50 [19] | GI50 [20]
1 | Nc1ccc(-c2nc3ccccc3s2)cc1CO | > 100 µM (inactive) | > 100 µM (inactive) | > 100 µM (inactive) | 49.1 µM (inactive) | 2.9 µM (inactive) | 6.05 µM (inactive) | > 87.7 µM (inactive) | > 100 µM (inactive) | > 100 µM (inactive) | 16.5 µM (inactive) | 50.6 µM (inactive) | 61.8 | 6.79 µM (inactive) | > 100 µM (inactive) | 41.7 µM (inactive) | < 0.01 µM (active) | 36.5 µM (inactive) | > 79.8 µM (inactive) | > 86.3 µM (inactive) | –
2 | O=C(CC1(O)CCCCC1)OC1CCCC1 | > 100 µM (inactive) | – | > 100 µM (inactive) | – | > 100 µM (inactive) | – | > 100 µM (inactive) | > 100 µM (inactive) | – | – | > 100 µM (inactive) | > 100 | > 100 µM (inactive) | > 100 µM (inactive) | > 100 µM (inactive) | > 100 µM (inactive) | > 100 µM (inactive) | > 100 µM (inactive) | > 100 µM (inactive) | > 100 µM (inactive)
3 | CCOC(=S)SCC(=O)O | > 100 µM (inactive) | – | > 100 µM (inactive) | > 100 µM (inactive) | > 100 µM (inactive) | > 100 µM (inactive) | > 100 µM (inactive) | > 100 µM (inactive) | > 100 µM (inactive) | > 100 µM (inactive) | > 100 µM (inactive) | > 100 | > 100 µM (inactive) | > 100 µM (inactive) | > 100 µM (inactive) | > 100 µM (inactive) | > 100 µM (inactive) | > 100 µM (inactive) | > 100 µM (inactive) | > 100 µM (inactive)
4 | O=c1c2ccccc2nc2[nH][nH]c(=S)n12 | > 100 µM (inactive) | – | 48.4 µM (inactive) | > 100 µM (inactive) | > 100 µM (inactive) | > 100 µM (inactive) | > 100 µM (inactive) | > 100 µM (inactive) | > 100 µM (inactive) | 58.6 µM (inactive) | > 100 µM (inactive) | > 100 | > 100 µM (inactive) | > 100 µM (inactive) | > 100 µM (inactive) | > 100 µM (inactive) | > 100 µM (inactive) | > 100 µM (inactive) | > 100 µM (inactive) | > 100 µM (inactive)
5 | Cc1ccc(S(=O)(=O)NC(=O)NC(CO)C(=O)O)cc1 (configuration not stated) | > 100 µM (inactive) | – | > 100 µM (inactive) | > 100 µM (inactive) | – | > 100 µM (inactive) | > 100 µM (inactive) | > 100 µM (inactive) | > 100 µM (inactive) | > 100 µM (inactive) | > 100 µM (inactive) | > 100 | > 100 µM (inactive) | – | > 100 µM (inactive) | – | > 100 µM (inactive) | > 100 µM (inactive) | > 100 µM (inactive) | > 100 µM (inactive)
6 | N#C/C(C(=O)Nc1ccccc1)=C(/N)N1CCCC1 | 88.1 µM (inactive) | > 100 µM (inactive) | – | > 100 µM (inactive) | > 100 µM (inactive) | > 100 µM (inactive) | > 100 µM (inactive) | > 100 µM (inactive) | > 100 µM (inactive) | > 100 µM (inactive) | > 100 µM (inactive) | > 100 | > 100 µM (inactive) | > 100 µM (inactive) | > 100 µM (inactive) | > 100 µM (inactive) | > 100 µM (inactive) | > 100 µM (inactive) | > 100 µM (inactive) | –
7 | C=CCCCN(C(=O)c1ccccc1)c1ccc(C(=O)OC)o1 | > 100 µM (inactive) | – | > 100 µM (inactive) | – | > 100 µM (inactive) | – | > 100 µM (inactive) | 81.1 µM (inactive) | – | 91.4 µM (inactive) | > 100 µM (inactive) | > 100 | > 100 µM (inactive) | – | 95.1 µM (inactive) | > 100 µM (inactive) | > 100 µM (inactive) | 52.5 µM (inactive) | 51.9 µM (inactive) | > 100 µM (inactive)
8 | Cc1nc2sc3ccccc3n2c(=O)c1/N=N/c1ccc(Cl)cc1 | > 100 µM (inactive) | – | > 100 µM (inactive) | > 100 µM (inactive) | > 100 µM (inactive) | > 100 µM (inactive) | > 100 µM (inactive) | > 100 µM (inactive) | > 100 µM (inactive) | > 100 µM (inactive) | > 100 µM (inactive) | > 100 | > 100 µM (inactive) | > 100 µM (inactive) | > 100 µM (inactive) | > 100 µM (inactive) | > 100 µM (inactive) | > 100 µM (inactive) | > 100 µM (inactive) | > 100 µM (inactive)
9 | CC1C2CC(CC2=O)C1(C)C (configuration not stated) | > 100 µM (inactive) | > 100 µM (inactive) | > 100 µM (inactive) | – | > 100 µM (inactive) | > 100 µM (inactive) | > 100 µM (inactive) | > 100 µM (inactive) | > 100 µM (inactive) | > 100 µM (inactive) | > 100 µM (inactive) | – | > 100 µM (inactive) | > 100 µM (inactive) | > 100 µM (inactive) | > 100 µM (inactive) | > 100 µM (inactive) | – | > 100 µM (inactive) | > 100 µM (inactive)
10 | Cn1c(=O)c2c([nH]/c(=N/N=C/c3ccccc3C(=O)O)n2C)n(C)c1=O | > 100 µM (inactive) | – | > 100 µM (inactive) | > 100 µM (inactive) | > 100 µM (inactive) | > 100 µM (inactive) | > 100 µM (inactive) | > 100 µM (inactive) | > 100 µM (inactive) | > 100 µM (inactive) | > 100 µM (inactive) | > 100 | > 100 µM (inactive) | > 100 µM (inactive) | > 100 µM (inactive) | > 100 µM (inactive) | > 100 µM (inactive) | > 100 µM (inactive) | > 100 µM (inactive) | > 100 µM (inactive)
11 | Cc1ccc(N(C(=O)Nc2ccc(F)c(Cl)c2)C2=NCC(C)S2)cc1 (configuration not stated) | 36 µM (inactive) | – | 17.9 µM (inactive) | > 10 µM (inactive) | 22.2 µM (inactive) | 43.9 µM (inactive) | 53.2 µM (inactive) | 72.4 µM (inactive) | 19.9 µM (inactive) | 31.6 µM (inactive) | > 100 µM (inactive) | 52.7 | – | 45.3 µM (inactive) | 42 µM (inactive) | – | 49.3 µM (inactive) | 22.6 µM (inactive) | 46.7 µM (inactive) | 8.83 µM (inactive)
12 | COC1OC(Cn2cc([N+](=O)[O-])nc2C)C(O)C(O)C1O (configuration not stated) | > 100 µM (inactive) | > 100 µM (inactive) | – | > 100 µM (inactive) | > 100 µM (inactive) | > 100 µM (inactive) | > 100 µM (inactive) | > 100 µM (inactive) | > 100 µM (inactive) | > 100 µM (inactive) | > 100 µM (inactive) | > 100 | > 100 µM (inactive) | > 100 µM (inactive) | > 100 µM (inactive) | – | > 100 µM (inactive) | > 100 µM (inactive) | > 100 µM (inactive) | > 100 µM (inactive)
13 | Cc1cc2nc(-c3cc(C(C)(C)C)c(O)c(C(C)(C)C)c3)[nH]c2cc1C | – | 5.81 µM (inactive) | > 100 µM (inactive) | 12.8 µM (inactive) | – | 3.18 µM (inactive) | > 52.2 µM (inactive) | 2.9 µM (inactive) | > 100 µM (inactive) | 1.82 µM (inactive) | 11.6 µM (inactive) | 6.55 | 0.979 µM (active) | 11.6 µM (inactive) | 3.39 µM (inactive) | > 100 µM (inactive) | > 100 µM (inactive) | > 68.7 µM (inactive) | 3.49 µM (inactive) | –
14 | COc1ccc2c(c1)CC1=C(O2)c2ccc(OC)cc2OC1 | 20.7 µM (inactive) | 38.5 µM (inactive) | 25 µM (inactive) | 33.7 µM (inactive) | 18.7 µM (inactive) | 44.8 µM (inactive) | 19.2 µM (inactive) | 18.3 µM (inactive) | – | 33.4 µM (inactive) | – | 17.2 | 17.7 µM (inactive) | 19.9 µM (inactive) | 31 µM (inactive) | 18.5 µM (inactive) | 52.2 µM (inactive) | 34 µM (inactive) | 17.5 µM (inactive) | –
15 | COc1c(C)c(C/C=C(\C)CCCCO)c(OC)c2ccccc12 | 20.4 µM (inactive) | 23.3 µM (inactive) | 33 µM (inactive) | > 100 µM (inactive) | 17.9 µM (inactive) | 29.4 µM (inactive) | 33.8 µM (inactive) | 38.2 µM (inactive) | – | 21.2 µM (inactive) | > 100 µM (inactive) | 31.6 | 49.2 µM (inactive) | 62.4 µM (inactive) | 23.9 µM (inactive) | – | 41.4 µM (inactive) | 42.6 µM (inactive) | 42.2 µM (inactive) | 38.5 µM (inactive)
16 | O/N=C1\CCc2nonc2\C1=N/Nc1ccccc1 | > 100 µM (inactive) | > 100 µM (inactive) | > 100 µM (inactive) | > 100 µM (inactive) | > 100 µM (inactive) | > 100 µM (inactive) | > 100 µM (inactive) | > 100 µM (inactive) | > 100 µM (inactive) | > 100 µM (inactive) | > 100 µM (inactive) | > 100 | > 100 µM (inactive) | > 100 µM (inactive) | > 100 µM (inactive) | 35.6 µM (inactive) | > 100 µM (inactive) | > 100 µM (inactive) | > 100 µM (inactive) | –

From ChEMBL document CHEMBL1201862, “PubChem BioAssay data set” (2004)
